Laboratory results published in patent US20120329721A1, “MEANS FOR PREVENTING AND TREATING CELLULAR DEATH AND THEIR BIOLOGICAL APPLICATIONS” (CHIESI FARMACEUTICI S.P.A., priority 2003, published 2012).
“Also recorded” adds a separate entry of the source. Read-outs that look alike come from different tables or passages of the source. Residues, ends and D or L forms follow the SMILES beside them. *: point of attachment. Cbz = O=C(OCc1ccccc1)*; d = 2'-deoxy (DNA); r = 2'-OH (RNA); CH2F = FC*

Experiments:
primary cortical neurons [1] = format: cell-based; settings: for survival / protection of SD-neurons against cell death (apoptosis hallmarks overall): 24 hr-SD, inhibitors 100 μM (BA 25 μM, furosemide 2 mM, siRNA 3.8 μg)
caspase-2 [2] = experiment: In cellula caspase-2 like activity (FAM-VDVAD-FMK FLICA; Western blotting) in SD-neurons; format: cell-based, mouse
caspase-3 [3] = experiment: In cellula caspase-3 like activity (FAM-DEVD-FMK FLICA or anti-cleaved caspase-3 antibody) in SD-neurons; format: cell-based, mouse; settings: 24 hr-SD; inhibitors 100 μM (BA 25 μM)
caspase-9 = experiment: In cellula caspase-9 like activity (FAM-LEHD-FMK FLICA) in SD-neurons; format: cell-based, mouse; settings: 24 hr-SD; inhibitors 100 μM (BA 25 μM)
Protocol: Neurons were incubated with 1/150 of the DMSO stock solution of the FLICA for 1 hr at 37° C. 7-AAD and Hoechst were added during the last 15 min. Then neurons were washed three times in washing buffer (CaspaTag™ Kit). […] Cleaved caspase-3 was evidenced in cellula by immunodetection using Phycoerythrin (PE)-conjugated polyclonal antibodies (Beckton Dickinson). Neurons were stained by 7-AAD, trypsinized and fixed in PBS containing 1% PFA and 20 μg/ml Actinomycin D (AD) for 20 min. […] After washings in PBS, PE-related fluorescence was analysed on the cytometer (Fl-2 channel). Z-val-Ala-Asp(OMe)-FMK (Z-VAD-FMK), Quinoline-Val-Asp (OMe)-CH2-O-Ph (Q-VD-OPH), Z-DEVD-FMK ([…], ICN) and Z-LEHD-FMK ([…], all purchased from ICN (Orsay, France), and 4-(2-Aminoethyl)benzenesulfonyl fluoride (AEBSF, Pefabloc SC, Roche, Meylan, France) were added at 100 μM at the initiation of serum deprivation. Sulforhodamine-DEVD-FMK, (CaspaTag™ Red Activity Kit) permitted to detect activated caspase-3 and FITC-Annexin V. Neurons were incubated with 1/900 of the DMSO stock solution of the FLICA, and 1× FITC-annexin V in 200 μl of annexin-buffer for 30 min at 37° C. Then neurons were washed three times in a buffer composed of 50% washing buffer and 50% annexin-buffer. […] For FM, FLICA was excited through the BP515-560 filter and its fluorescence was collected through the LP590 long pass emission filter.
Neurons were loaded with 1 μM JC-1 for 30 min at 37° C. […] JC-1 monomers were detected in the Fl-1 channel by FC. […] Activated caspase-2, -3, -8 and -9 were detected using specific FAM-conjugated peptides (called Fluorochrome Labeled Inhibitor of Caspase, FLICA: CaspaTag™ fluorescein Caspase Activity Kits, Q-Biogen, Illkirch, France; ApoFluor™ Caspase Detection Kits, ICN, Orsay, France): FAM-VDVAD-FMK, FAM-DEVD-FMK, FAM-LETD-FMK and FAM-LEHD-FMK, respectively. Neurons were incubated with FLICAs (1:150, CaspaTag™ or 1:500, ApoFluor™) for 1 hr at 37° C., then washed three times in washing buffer. […] Phosphatidylserine (PS) exposure to the outer leaflet of the plasma membrane was detected through the fixation of FITC conjugated-annexin V (Immunotech).

cytochrome c = experiment: Immunodetection of cytochrome c release in SD-neurons; format: cell-based, mouse; settings: 24 hr-SD, inhibitors 100 μM
Bax = Bax translocation to mitochondria in SD-neurons (Δ21 antibody immunostaining, subcellular fractionation); format: cell-based, mouse; settings: 24 hr-SD, inhibitors 100 μM (furosemide 2 mM)
Bax α = experiment: Bax cleavage (p22 to p18) in SD-neurons by Western blotting; format: cell-based, mouse; settings: 24 hr-SD, Western Blotting Δ21 antibody; VDVAD/QVDOPH 100 μM, ALLN/ALLM 25 μM, E64d 25-50 μM, lactacystin 1-10 μM, epoxomycin 10 μM
Protocol: Neurons were lysed at RT in 25 mM Tris-HCl pH 7.4, 25 mM NaCl, 5 mM EDTA, 1% Triton X-100 supplemented by complete protease inhibitors cocktail (Roche). Protein concentration was determined using the Bio-Rad protein assay kit. Proteins (30 μg for caspase-2; 10 μg for Bax) were separated on 12.5% polyacrylamide gels and transferred to PVDF membranes (Amersham). […] The monoclonal anti-mouse caspase-2antibody (11B4, Alexis Biochemicals) was used at a 1:1000 dilution; polyclonal antibody (Δ21, Santa Cruz Biotechnology) raised against mouse Bax α deleted for the carboxy terminal 21 amino acids was used at a 1:200 dilution; polyclonal antibody (N20, Santa Cruz Biotechnology) raised against the amino terminus of Bax α (recognizing residues 11 to 30) was used at a 1:1000 dilution. Actin (42 kDa; Sigma; 1:5000) is used as an equal loading control. Immunoblotting of heat-shock protein 60 (HSP60) with a mouse monoclonal anti-HSP (Sigma; 1:400) was used to check the purity of the heavy membrane fraction enriched in mitochondria.

primary cortical neurons [4] = experiment: Cortical neuron death induced by other stimuli (ionomycin, staurosporine, β-amyloid 25-35, MPTP, 3-NPA, SNP); format: cell-based, mouse; settings: for protection against ionomycin-induced neuronal cell death: ionomycin 6 μM, 24 hrs
[5] = biological target: T1, human recombinant caspase-2 (Homo sapiens, UniProt P42575); experiment: In vitro VDVAD-AMC cleavage by recombinant caspase-2; format: biochemical; settings: inhibitor 2 μM, 50 μM VDVAD-AMC, caspase-2 125 U, 30 min at 37° C.
T1 construct: purchased BIOMOL
T1 sequence (P42575 170-325 limits assumed): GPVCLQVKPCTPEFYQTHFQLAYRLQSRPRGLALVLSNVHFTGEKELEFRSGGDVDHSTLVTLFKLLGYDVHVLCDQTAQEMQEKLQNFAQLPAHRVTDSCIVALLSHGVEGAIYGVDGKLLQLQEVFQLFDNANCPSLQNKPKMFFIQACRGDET
T1 sequence (P42575 348-452 limits assumed): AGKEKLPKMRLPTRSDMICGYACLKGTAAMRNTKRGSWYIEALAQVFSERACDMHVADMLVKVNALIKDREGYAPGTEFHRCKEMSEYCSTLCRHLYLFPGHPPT
Protocol: Activity of human recombinant caspase-2 (BIOMOL QuantiZyme™ Assay System) was assessed in 100 μl assay buffer (50 mM HEPES, pH 7.4, 100 mM NaCl, 0.1% CHAPS, 10 mM DTT, 1 mM EDTA, 10% glycerol).

Jurkat cells [6] = experiment: VP16-induced cell death of Jurkat cells, cytoprotection assay; format: cell-based, human; settings: for terminal nuclear alterations and PMP in VP16-treated Jurkat cells / ΔΨm loss in VP16-treated Jurkat cells: VP16 10 μM, 7-8 hrs, inhibitors 50 μM
Jurkat cells [7] = settings: model of Robertson et al., 2002; cited from earlier work
murine caspase-2 = experiment: Caspase-2 knock-down by siRNA in cortical neurons (RT-PCR, Western blotting, 10C6 immunostaining); format: cell-based, mouse; settings: in situ antibody-based detection
caspase-8 = experiment: In cellula caspase-8 like activity (FAM-LETD-FMK FLICA) in SD-neurons; format: cell-based, mouse; settings: 24 hr-SD; inhibitors 100 μM
caspase-2 [8] = experiment: Caspase-2 activation (FLICA) in VP16-treated Jurkat cells; format: cell-based, human; settings: VP16 10 μM, 7 hrs; inhibitors 50 μM
caspase-3 [9] = experiment: Caspase-3 activation (FLICA) in VP16-treated Jurkat cells; format: cell-based, human; settings: VP16 10 μM, 7 hrs; inhibitors 50 μM

For `COC(=O)CC(NC(=O)C(C)NC(=O)C(NC(=O)C(CC(=O)OC)NC(=O)C(NC(=O)OCc1ccccc1)C(C)C)C(C)C)C(=O)CF` (stereo not drawn) [Z-VDVAD-FMK, N-benzyloxy-carbonyl-Val-Asp(Ome)-Val-Ala-Asp(OMe)-fluoromethylketone] (Cbz-VD(OMe)VAD(OMe)-CH2F; configuration not given here), the “survival / protection of SD-neurons against cell death (apoptosis hallmarks overall)” value (from here on “survival / protection of SD-neurons”) (primary cortical neurons [1]) was “abolish loss of ΔΨm loss as well as others hallmarks of apoptosis”, the “survival / protection of SD-neurons” value (primary cortical neurons [1]; listed as VDVAD) was “abolishes these hallmarks of apoptosis” and the “concentration required for optimal survival / higher protective effect” value (primary cortical neurons [1]; dose-response, inhibitor added at the initiation of 24 hr-SD) was 100 µM. For the same molecule, the “caspase-2 like activity / activation in SD-neurons” value (caspase-2 [2]) was “abolished; also recorded: abolish caspase-2 activation; also recorded: impair both Bax translocation and caspase-2 activity; also recorded: blocks”, the “decrease of procaspase-2 protein content (processing into p14 form) in SD-neurons” value (caspase-2 [2]; 24 hr-SD, 100 μM, Western Blotting 11B4) was “prevents it” and the “caspase-3 like activity / activation in SD-neurons” value (caspase-3 [3]) was “inhibited; also recorded: prevent downstream cytochrome c release-dependent activation”. The “caspase-9 like activity / activation in SD-neurons” value (caspase-9) was “inhibited; also recorded: prevent downstream cytochrome c release-dependent activation”, the “cytochrome c release from mitochondria in SD-neurons” value (cytochrome c) was “efficiently blocked” and the “cytochrome c release from mitochondria in SD-neurons” value (cytochrome c; listed as VDVAD) was “reduce post-mitochondrial cytochrome c release”. For the same molecule, the “Bax translocation (relocation) to mitochondria in SD-neurons” value (Bax) was “impair Bax translocation to mitochondria; also recorded: impair both Bax translocation and caspase-2 activity”, the “Bax translocation (relocation) to mitochondria in SD-neurons” value (Bax; listed as VDVAD) was “prevented; also recorded: blocks; also recorded: prevents integration of p18 Bax into mitochondrial membrane” and the “Bax cleavage (p18 Bax) in SD-neurons” value (Bax α) was “prevent Bax cleavage”. For the same molecule, the “cell death induced by staurosporine or ionomycin” value (primary cortical neurons [4]; cortical neurons) was “is not prevented”, the “protection against ionomycin-induced neuronal cell death” value (primary cortical neurons [4]) was “provides no protective effect; also recorded: absence of protective effect” and the “protection against ionomycin-induced neuronal cell death” value (primary cortical neurons [4]; listed as VDVAD) was “absence of protection”. The “inhibition of VDVAD-AMC cleavage by recombinant caspase-2” value [5] was “blocked”, the “cell death induced by VP16 (survival)” value (Jurkat cells [6]; Jurkat cells, VP16 7-8 hrs, inhibitors 25-100 μM pre-treatment, siRNA 24 hrs before) was “protective effect; also recorded: prevents cell death” and the “terminal nuclear alterations and PMP in VP16-treated Jurkat cells” value (Jurkat cells [6]) was “mostly prevent”. For the same molecule, the “ΔΨm loss in VP16-treated Jurkat cells” value (Jurkat cells [6]) was “blocked ΔΨm loss” and the “cytochrome c release and phosphatidylserine residues exposure in Jurkat T cells” value (Jurkat cells [7]) was “decreased partially”.

In the case of “siRNA C2 m: irrelevant control siRNA with 4 mutations, duplex of SEQ ID No 3 and SEQ ID No 4 (chain 1 CAUCUACUCGAGACGGACATT; chain 2 UGUCCGUCUCGAGUAGAUGTT; sugars from the 5' end r19 d2, backbone not given here)”, the “Bax cleavage (p18 Bax) in SD-neurons” value (Bax α) is reported as “has no effect” and the “caspase-2 expression (gene silencing / knock-down)” value (murine caspase-2) is reported as “prevents neither gene/protein expression”.

For `COC(=O)CCC(NC(=O)C(CC(C)C)NC(=O)OCc1ccccc1)C(=O)NC(C(=O)NC(CC(=O)OC)C(=O)CF)C(C)O` (stereo not shown) [Z-LETD-FMK, N-benzyloxycarbonyl-Leu-Glu(Ome)-Thr-Asp(OMe)-fluoromethylketone] (Cbz-LE(OMe)TD(OMe)-CH2F; configuration not given here), the “survival / protection of SD-neurons” value (primary cortical neurons [1]) was “failed to protect neurons from SD”, the “caspase-3 like activity / activation in SD-neurons” value (caspase-3 [3]) was “failed also to block” and the “caspase-8 like activity in SD-neurons” value (caspase-8) was “abolishing”. The “caspase-9 like activity / activation in SD-neurons” value (caspase-9) was “failed also to block”, the “inhibition of VDVAD-AMC cleavage by recombinant caspase-2” value [5] was “did not interfere highly; also recorded: not strongly inactivated” and the “terminal nuclear alterations and PMP in VP16-treated Jurkat cells” value (Jurkat cells [6]) was “unable to prevent”. For the same molecule, the “ΔΨm loss in VP16-treated Jurkat cells” value (Jurkat cells [6]) was “not abolished; also recorded: unable to prevent”, the “caspase-2 activation in VP16-treated Jurkat cells” value (caspase-2 [8]) was “do not impair caspase-2 activation; also recorded: unable to prevent” and the “caspase-3 activation in VP16-treated Jurkat cells” value (caspase-3 [9]) was “unable to prevent”.
